Laboratory results as given in patent publication US20260374766A1, “METHODS FOR TREATING CANCER” (Antares Therapeutics, Inc., priority 2022, published 2026).
Like-named read-outs stand apart in the source and are kept apart here.

Legend:
[1] = biological target: T1, p53 Y220C mutant protein (amino acid residues 94-293) (Homo sapiens, UniProt P04637, Y220C); assay: Surface Plasmon Resonance (SPR) assay, Kd_kinetic; format: binding; conditions: SPR, p53 Y220C, read-out: SPR P53 Y220C KD kinetic
T1 construct: p53 Y220C mutant protein (amino acid residues 94-293)
T1 sequence (P04637 94-293, stated change not applied): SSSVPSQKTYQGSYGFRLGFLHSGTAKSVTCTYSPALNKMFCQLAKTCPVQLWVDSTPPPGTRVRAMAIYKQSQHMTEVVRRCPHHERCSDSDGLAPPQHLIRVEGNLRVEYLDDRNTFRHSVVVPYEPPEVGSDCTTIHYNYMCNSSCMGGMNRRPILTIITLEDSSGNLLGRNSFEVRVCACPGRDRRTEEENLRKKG
Procedure: Surface Plasmon Resonance (SPR) Assay Protocol
SPR experiments were performed on a Biacore 8K instrument. […] The running buffer contained 50 mM Tris, pH 7.5, 100 mM NaCl, 1 mM DTT, 0.01% Brij35, 0.05% Tween-20 and 1% DMSO. The assay temperature was maintained at 16 or 20 °C and data were fit into the 1:1 binding model using the Biacore Insight Evaluation software.

p53 Y220C = p53 Y220C (Homo sapiens, UniProt P04637, Y220C); assay: Luciferase Reporter Assay (Luc), p53 response element, NClH1299 cells with inducible p53 Y220C; format: cell-based; conditions: luciferase reporter, NClH1299 inducible p53 Y220C, 6 hour; for AC50: read-out: Luc P53 Y220C AC50
Procedure: Luciferase Reporter Assay Protocol
The cells were then used for p53 reporter assay. 5,000 cells were seeded in each well of 384 plate and cultured in 0.5 ug/mL doxycycline (D3072; Sigma) containing medium for 24 hours before compound treatment. After 6 hour of compound treatment, equal volume of One-Glo reagent (E6110; Promega) was added to each well and the plate was incubated for 5 minutes with shaking at room temperature. The luciferase activity was immediately measured with PheraStar microplate reader.

NUGC3 p53 Y220C = assay: Cell Proliferation Assay (CellTiter-Glo, CTG), NUGC3 p53 Y220C; format: cell-based; conditions: Homo sapiens, NUGC-3, 120 h, CellTiter-Glo, 5 days
Procedure: (§1) Inducible p53 Y220C and R273H constructs (Tet-One inducible expression system; Takara) were stably expressed in NClH1299 cells by lentiviral transduction. NUGC3, A549, BxPC3, T3M4, HuH7, HCC2935, MFE296, NClH1299, NClH1299-inducible p53 Y220C, and NClH1299-inducible p53 R273H cell lines were used for cell proliferation assay. 250-500 cells were seeded in each well of 384 plate and then compounds were dispensed into each well using Echo or Tecan. After 5 days of incubation, equal volume of CellTiter-Glo reagent (G7570; Promega) was added into each well and the plate was incubated at room temperature for 10 minutes with shaking. The luminescent signal was measured by PheraStar microplate reader and IC50 was calculated.

H1299 p53 Y220C = assay: Cell Proliferation Assay (CellTiter-Glo, CTG), H1299 p53 Y220C (NClH1299-inducible p53 Y220C); format: cell-based; conditions: Homo sapiens, NCI-H1299, 120 h, CellTiter-Glo, 5 days
Procedure: as §1

H1299 p53 R273H = assay: Cell Proliferation Assay (CellTiter-Glo, CTG), H1299 p53 R273H (NClH1299-inducible p53 R273H); format: cell-based; conditions: Homo sapiens, NCI-H1299, 120 h, CellTiter-Glo, 5 days
Procedure: as §1

[2] = 10 uM tool compound as positive control
[3] = NClH1299-inducible p53 Y220C cells
[4] = NClH1299-inducible p53 R273H cells

Kd ([1]; kinetic KD)	Emax (p53 Y220C; [2])	AC50 (p53 Y220C)	IC50 (H1299 p53 Y220C; H1299 p53 Y220C)	IC50 (H1299 p53 R273H; H1299 p53 R273H)	Kd [1]	AC50 (p53 Y220C; AC50)	Emax (p53 Y220C; Emax)	IC50 (H1299 p53 Y220C; [3])	IC50 (H1299 p53 R273H; [4])	Structure (SMILES)	IC50 (NUGC3 p53 Y220C; NUGC3 p53 Y220C)	IC50 (NUGC3 p53 Y220C; NUGC3 cells)
10 to 100 nM	< 70%	> 3000 nM	> 3000 nM	≥ 10000 nM						CNC(=O)c1ccc(NCC#Cc2nn3c(N[C@@H]4CCN(C)C[C@@H]4F)ccnc3c2SC(F)(F)F)c(OC)c1 [Example 205]	> 3000 nM	
< 10 nM	> 90%	< 750 nM	< 750 nM	≥ 10000 nM						CNC(=O)c1ccc(OC)c(NCC#Cc2cc3c(N[C@@H]4CN(C)C[C@@H]4F)nccn3c2SC(F)(F)F)c1 [Example 208]	< 750 nM	
< 10 nM	> 90%	< 750 nM	< 750 nM	≥ 10000 nM						CNC(=O)c1ccc(NCC#Cc2nn3c(N[C@@H]4CCN(C)C[C@@H]4F)nccc3c2SC(F)(F)F)c(OC)c1 [Example 214, 4-{[3-(7-{[(3S,4R)-3-fluoro-1-methylpiperidin-4-yl]amino}-3-[(trifluoromethyl)sulfanyl]pyrazolo[1,5-c]pyrimidin-2-yl)prop-2-yn-1-yl]amino}-3-methoxy-N-methylbenzamide]	< 750 nM	
10 to 100 nM	< 70%	> 3000 nM	1500 to 3000 nM	< 5000 nM						CNC(=O)c1ccc(OC)c(NCC#Cc2nn3c(N[C@@H]4CCN(C)C[C@@H]4F)ccnc3c2SC(F)(F)F)c1 [Example 216, 3-{[3-(7-{[(3S,4R)-3-fluoro-1-methylpiperidin-4-yl]amino}-3-[(trifluoromethyl)sulfanyl]pyrazolo[1,5-a]pyrimidin-2-yl)prop-2-yn-1-yl]amino}-4-methoxy-N-methylbenzamide]	1500 to 3000 nM	
					< 10 nM	< 750 nM	> 90%	< 750 nM	≥ 10000 nM	CNC(=O)c1ccc(C#N)c(NCC#Cc2nc3c(N[C@@H]4CCN(C)C[C@@H]4F)cccn3c2SC(F)(F)F)c1 [Example 224]		< 750 nM
					< 10 nM	< 750 nM	80 to 90%	< 750 nM	≥ 10000 nM	COc1ccc(C(N)=O)cc1NCC#Cc1nn2c(N[C@@H]3CCN(C)C[C@@H]3F)cccc2c1SC(F)(F)F [Example 232]		< 750 nM
					< 10 nM	750 to 1500 nM	80 to 90%	750 to 1500 nM	≥ 10000 nM	COc1ccc(C(N)=O)nc1NCC#Cc1nn2c(N[C@@H]3CCN(C)C[C@@H]3F)cccc2c1SC(F)(F)F [Example 235]		1500 to 3000 nM

Continued, molecule first:

Structure (SMILES)	Kd ([1]; kinetic KD)	Emax (p53 Y220C; [2])	AC50 (p53 Y220C)	IC50 (H1299 p53 Y220C; H1299 p53 Y220C)	IC50 (H1299 p53 R273H; H1299 p53 R273H)	Kd [1]	AC50 (p53 Y220C; AC50)	Emax (p53 Y220C; Emax)	IC50 (H1299 p53 Y220C; [3])	IC50 (H1299 p53 R273H; [4])	IC50 (NUGC3 p53 Y220C; NUGC3 p53 Y220C)	IC50 (NUGC3 p53 Y220C; NUGC3 cells)
CNC(=O)c1ccc(OC)c(NCC#Cc2cc3c(N[C@@H]4CNC[C@@H]4F)nccn3c2SC(F)(F)F)c1 [Example 209]	< 10 nM	> 90%	< 750 nM	750 to 1500 nM	≥ 10000 nM						< 750 nM	
CNC(=O)c1ccc(OC)c(NCC#Cc2cc3c(N[C@@H]4CNC[C@@H]4F)nccn3c2SC(F)(F)F)n1 [Example 210]	< 10 nM	80 to 90%	750 to 1500 nM	750 to 1500 nM	≥ 10000 nM						750 to 1500 nM	
CNC(=O)c1ccc(OC)c(NCC#Cc2cc3c(N[C@@H]4CN(C)C[C@@H]4F)nccn3c2SC(F)(F)F)n1 [Example 211]	< 10 nM	80 to 90%	< 750 nM	< 750 nM	≥ 10000 nM						750 to 1500 nM	
COc1ccc(-c2ncc[nH]2)cc1NCC#Cc1nc2c(N[C@@H]3CCN(C)C[C@@H]3F)cccn2c1SC(F)(F)F [Example 220]	< 10 nM	70 to 80%	< 750 nM	< 750 nM	< 5000 nM						< 750 nM	
COc1cc(C(=O)NCCN(C)C)ccc1NCC#Cc1nc2c(N[C@@H]3CCOC[C@@H]3F)cccn2c1SC(F)(F)F [Example 221]	< 10 nM	70 to 80%	< 750 nM	< 750 nM	< 5000 nM						< 750 nM	
CNC(=O)c1ccc(NCC#Cc2nc3c(N[C@@H]4CCOC[C@@H]4F)cccn3c2SC(F)(F)F)c(OCCN(C)C)c1 [Example 226]						< 10 nM	750 to 1500 nM	70 to 80%	750 to 1500 nM	5000 to 8000 nM		750 to 1500 nM
COc1ccc(C(=O)NCC2CN(C)C2)cc1NCC#Cc1nc2c(N[C@@H]3CCOC[C@@H]3F)cccn2c1SC(F)(F)F [Example 228]						< 10 nM	> 3000 nM	< 70%	> 3000 nM	≥ 10000 nM		< 750 nM
CNC(=O)c1ccc(NCC#Cc2nc3c(N[C@@H]4CCS(=O)(=O)C4)cccn3c2SC(F)(F)F)c(OC)c1 [Example 230]						10 to 100 nM	1500 to 3000 nM	80 to 90%	1500 to 3000 nM	≥ 10000 nM		1500 to 3000 nM
CNC(=O)c1ccc(OC)c(NCC#Cc2nc3c(NC4COC4)cccn3c2SC(F)(F)F)c1 [Example 240]						< 10 nM	< 750 nM	> 90%	< 750 nM	8000 to 10000 nM		< 750 nM
CNC(=O)c1ccc(OC)c(NCC#Cc2nc3c(N[C@H]4[C@H]5CC[C@@H]4NC5)cccn3c2SC(F)(F)F)c1 [Example 244]						< 10 nM	> 3000 nM	80 to 90%	1500 to 3000 nM	≥ 10000 nM		750 to 1500 nM
CNC(=O)c1ccc(OC)c(NCC#Cc2nc3c(N[C@@H]4[C@@H]5CC[C@H]4NC5)cccn3c2SC(F)(F)F)c1 [Example 247]						< 10 nM	1500 to 3000 nM	70 to 80%	1500 to 3000 nM	8000 to 10000 nM		750 to 1500 nM
CNC(=O)c1ccc(OC)c(NCC#Cc2nc3c(N[C@H]4C[C@@H]5CC[C@H]4N5C)cccn3c2SC(F)(F)F)c1 [Example 248]						< 10 nM	750 to 1500 nM	70 to 80%	750 to 1500 nM	5000 to 8000 nM		750 to 1500 nM
CNC(=O)c1ccc(OC)c(NCC#Cc2nc3c(N[C@@H]4C[C@@H]5CC[C@H]4N5C)cccn3c2SC(F)(F)F)c1 [Example 249]						< 10 nM	750 to 1500 nM	< 70%	750 to 1500 nM	5000 to 8000 nM		750 to 1500 nM
CNC(=O)c1cc(NCC#Cc2nc3c(N[C@@H]4CCN(C)C[C@@H]4F)cccn3c2SC(F)(F)F)c(OC)nn1 [Example 259]						< 10 nM	< 750 nM	> 90%	< 750 nM	≥ 10000 nM		< 750 nM
CNC(=O)c1ccc(OC)c(NCC#Cc2nc3c(N[C@@H]4CN(C)C[C@@H]4F)cccn3c2CC(F)(F)F)n1 [Example 262]						< 10 nM	750 to 1500 nM	70 to 80%	< 750 nM	≥ 10000 nM		750 to 1500 nM
CNC(=O)c1ccc(OC)c(NCC#Cc2nc3c(N[C@@H]4CNC[C@@H]4F)cccn3c2CC(F)(F)F)n1 [Example 263]						< 10 nM	> 3000 nM	70 to 80%	1500 to 3000 nM	≥ 10000 nM		750 to 1500 nM
CNC(=O)c1cnc(OC)c(NCC#Cc2nc3c(N[C@H]4C[C@@H]5CC[C@H]([C@H]4F)N5C)cccn3c2SC(F)(F)F)c1 [Example 266]						< 10 nM	< 750 nM	70 to 80%	< 750 nM	≥ 10000 nM		< 750 nM
